Experimental data published in PMC5522078, “Discovery and characterization of small molecules targeting the DNA-binding ETS domain of ERG in prostate cancer” (Oncotarget, 2017).

Target: T1, ERG (Homo sapiens, UniProt P11308)
T1 construct: VCaP (endogenous overexpression); endogenous in cells; host or cells: VCaP (whole cells for A2 and A17; nuclear extract for A16)
T1 sequence (P11308 33-479 limits assumed): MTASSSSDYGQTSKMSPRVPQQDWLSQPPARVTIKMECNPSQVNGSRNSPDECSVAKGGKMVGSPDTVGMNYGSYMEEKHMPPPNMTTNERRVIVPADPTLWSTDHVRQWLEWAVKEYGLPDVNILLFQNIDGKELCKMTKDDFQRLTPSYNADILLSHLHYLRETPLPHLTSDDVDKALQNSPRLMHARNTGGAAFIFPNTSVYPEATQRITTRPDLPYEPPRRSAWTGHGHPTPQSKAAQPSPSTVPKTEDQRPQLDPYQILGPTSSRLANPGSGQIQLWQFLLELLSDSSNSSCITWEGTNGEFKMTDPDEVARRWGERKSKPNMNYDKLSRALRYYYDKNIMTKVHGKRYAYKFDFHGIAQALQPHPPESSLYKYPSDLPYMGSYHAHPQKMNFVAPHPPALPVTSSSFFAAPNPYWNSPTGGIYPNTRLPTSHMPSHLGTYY
Assay: ERG protein stability, Western blot after cycloheximide
Format: cell-based
Details: VCaP cells
Experimental: Cells were lysed on ice with RIPA buffer containing a protease inhibitor cocktail (Pierce). Primary antibodies: ERG (1:1,000, EPR3864(2), Abcam), α-Tubulin (1:20,000, Millipore), Vinculin (1:1,000, Abcam). Immunoreactivity was detected with the use of the goat anti-rabbit or rabbit anti-mouse horseradish peroxidase (HPR)–conjugated secondary antibody (1:10,000) (Santa Cruz), and visualization was achieved by chemiluminescence (Pierce). To inhibit protein synthesis, 10 μM cycloheximide was added for 1 h and then replaced with treatment medium for indicated time frame.

CC(C)c1ccc(C=N/N=C2\NC(=O)[C@@H](CC(=O)O)S2)cc1 (stereo in doubt) [VPC-18005, 2-((Z)-2-(((Z)-4-isopropylbenzylidene)hydrazono)-4-oxothiazolidin-5-yl)acetic acid]
ERG protein degradation, 4 h (cycloheximide pre-treatment, up to 50 μM for 4 h): did not induce ERG degradation | ERG protein degradation, 24 and 48 h (cycloheximide, 24 and 48 h): no observable ERG protein degradation
